Laboratory results from patent US8846918B2, “Compounds useful as inhibitors of ATR kinase” (Vertex Pharmaceuticals Incorporated, priority 2011, dated 2014).

Target: T1, ATR kinase (Homo sapiens, UniProt Q13535)
T1 construct: Assays were carried out at 25° C. in the presence of 5 nM full-length ATR
Experiment: ATR Inhibition Assay (radioactive-phosphate incorporation)
Format: biochemical
Conditions: Ki(app); 5 nM full-length ATR, 10 μM ATP, 800 μM target peptide, 25° C.
Procedure: Compounds were screened for their ability to inhibit ATR kinase using a radioactive-phosphate incorporation assay. Assays were carried out in a mixture of 50 mM Tris/HCl (pH 7.5), 10 mM MgCl2 and 1 mM DTT. Final substrate concentrations were 10 μM [γ-33P]ATP (3 mCi 33P ATP/mmol ATP, Perkin Elmer) and 800 μM target peptide (ASELPASQPQPFSAKKK).
Assays were carried out at 25° C. in the presence of 5 nM full-length ATR. An assay stock buffer solution was prepared containing all of the reagents listed above, with the exception of ATP and the test compound of interest. 13.5 μL of the stock solution was placed in a 96 well plate followed by addition of 2 μL of DMSO stock containing serial dilutions of the test compound (typically starting from a final concentration of 15 μM with 3-fold serial dilutions) in duplicate (final DMSO concentration 7%). The plate was pre-incubated for 10 minutes at 25° C. and the reaction initiated by addition of 15 μL [γ-33P]ATP (final concentration 10 μM).
The reaction was stopped after […] by the addition of 300 μL 0.1M phosphoric acid containing 2 mM ATP. […]
After removing mean background values for all of the data points, Ki(app) data were calculated from non-linear regression analysis of the initial rate data using the Prism software package (GraphPad Prism version 3.0cx for Macintosh, GraphPad Software, San Diego Calif., USA).

T1 sequence (Q13535 whole entry): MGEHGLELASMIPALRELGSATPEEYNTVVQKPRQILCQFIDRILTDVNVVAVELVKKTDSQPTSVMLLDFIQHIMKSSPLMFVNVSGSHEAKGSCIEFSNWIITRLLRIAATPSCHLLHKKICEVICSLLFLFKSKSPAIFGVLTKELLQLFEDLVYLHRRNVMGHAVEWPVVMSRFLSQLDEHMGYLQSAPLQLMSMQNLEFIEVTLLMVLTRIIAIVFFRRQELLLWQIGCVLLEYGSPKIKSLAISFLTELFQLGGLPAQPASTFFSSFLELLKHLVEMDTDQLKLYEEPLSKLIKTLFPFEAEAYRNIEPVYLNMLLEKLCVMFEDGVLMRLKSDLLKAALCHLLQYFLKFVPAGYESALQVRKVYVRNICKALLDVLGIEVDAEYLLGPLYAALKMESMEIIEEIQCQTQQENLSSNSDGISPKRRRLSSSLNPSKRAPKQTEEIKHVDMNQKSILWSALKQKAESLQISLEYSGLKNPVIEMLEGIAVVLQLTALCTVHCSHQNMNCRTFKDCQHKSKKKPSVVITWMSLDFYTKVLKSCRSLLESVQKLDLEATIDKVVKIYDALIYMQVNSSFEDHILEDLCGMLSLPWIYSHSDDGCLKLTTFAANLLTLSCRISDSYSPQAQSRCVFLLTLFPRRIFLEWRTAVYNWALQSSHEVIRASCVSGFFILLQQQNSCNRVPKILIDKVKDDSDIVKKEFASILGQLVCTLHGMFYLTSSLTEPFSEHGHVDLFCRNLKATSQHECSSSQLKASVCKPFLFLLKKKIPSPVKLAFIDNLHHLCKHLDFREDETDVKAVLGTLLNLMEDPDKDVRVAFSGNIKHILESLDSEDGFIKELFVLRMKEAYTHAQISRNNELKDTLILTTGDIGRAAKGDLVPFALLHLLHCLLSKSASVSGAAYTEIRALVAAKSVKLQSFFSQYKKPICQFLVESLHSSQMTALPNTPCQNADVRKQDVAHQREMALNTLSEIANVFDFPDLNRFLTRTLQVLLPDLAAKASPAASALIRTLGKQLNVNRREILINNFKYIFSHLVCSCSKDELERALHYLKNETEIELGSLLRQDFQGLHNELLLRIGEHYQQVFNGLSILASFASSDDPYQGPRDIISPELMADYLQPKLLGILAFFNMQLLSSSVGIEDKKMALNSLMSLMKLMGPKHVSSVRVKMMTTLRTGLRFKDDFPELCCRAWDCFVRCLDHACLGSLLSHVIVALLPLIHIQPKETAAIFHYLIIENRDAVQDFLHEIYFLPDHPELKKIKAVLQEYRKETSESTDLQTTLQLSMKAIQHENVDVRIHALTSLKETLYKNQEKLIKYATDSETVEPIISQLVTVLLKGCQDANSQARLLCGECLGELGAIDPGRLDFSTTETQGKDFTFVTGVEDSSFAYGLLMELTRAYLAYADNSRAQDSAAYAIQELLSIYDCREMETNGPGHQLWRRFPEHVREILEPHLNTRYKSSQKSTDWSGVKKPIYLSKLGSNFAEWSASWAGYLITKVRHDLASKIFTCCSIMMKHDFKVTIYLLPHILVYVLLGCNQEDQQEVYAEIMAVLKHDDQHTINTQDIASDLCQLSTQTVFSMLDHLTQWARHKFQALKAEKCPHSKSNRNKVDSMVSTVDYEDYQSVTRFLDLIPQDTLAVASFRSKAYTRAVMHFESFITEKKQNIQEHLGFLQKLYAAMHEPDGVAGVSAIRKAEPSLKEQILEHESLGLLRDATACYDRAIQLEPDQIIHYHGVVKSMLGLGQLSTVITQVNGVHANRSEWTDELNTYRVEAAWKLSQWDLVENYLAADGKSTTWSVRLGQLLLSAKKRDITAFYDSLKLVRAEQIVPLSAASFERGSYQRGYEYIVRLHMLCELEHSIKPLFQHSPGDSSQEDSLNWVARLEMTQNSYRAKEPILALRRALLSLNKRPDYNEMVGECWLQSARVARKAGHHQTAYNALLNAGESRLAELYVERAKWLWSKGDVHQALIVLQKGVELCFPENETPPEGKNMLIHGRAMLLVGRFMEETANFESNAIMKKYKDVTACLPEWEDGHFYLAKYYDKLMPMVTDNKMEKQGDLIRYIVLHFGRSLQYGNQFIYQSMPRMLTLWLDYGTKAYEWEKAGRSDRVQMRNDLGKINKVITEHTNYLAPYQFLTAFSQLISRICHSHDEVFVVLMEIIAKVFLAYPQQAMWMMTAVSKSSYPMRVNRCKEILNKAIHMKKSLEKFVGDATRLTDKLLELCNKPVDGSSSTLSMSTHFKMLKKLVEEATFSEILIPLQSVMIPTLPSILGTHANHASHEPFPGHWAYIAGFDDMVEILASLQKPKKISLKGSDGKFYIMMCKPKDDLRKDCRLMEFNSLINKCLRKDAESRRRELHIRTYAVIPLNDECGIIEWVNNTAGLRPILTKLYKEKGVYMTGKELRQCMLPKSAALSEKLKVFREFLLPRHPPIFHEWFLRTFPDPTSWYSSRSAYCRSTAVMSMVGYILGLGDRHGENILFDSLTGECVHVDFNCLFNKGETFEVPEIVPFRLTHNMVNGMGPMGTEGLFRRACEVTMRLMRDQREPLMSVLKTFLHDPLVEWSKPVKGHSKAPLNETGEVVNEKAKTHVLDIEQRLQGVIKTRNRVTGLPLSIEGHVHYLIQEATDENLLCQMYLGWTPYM

Ki	Compound
90 nM	2-(4-(5-amino-6-(4-iodo-3-(4-(((tetrahydro-2H-pyran-4-yl)amino)methyl)phenyl)isoxazol-5-yl)pyrazin-2-yl)pyridin-2-yl)-2-methylpropanenitrile [Compound I-2]
16 nM	CC(C)S(=O)(=O)c1ccc(-c2cnc(N)c(-c3onc(-c4ccc(CNC5CCOCC5)cc4)c3I)n2)cc1 [Compound I-1, 3-(4-iodo-3-(4-(((tetrahydro-2H-pyran-4-yl)amino)methyl)phenyl)isoxazol-5-yl)-5-(4-(isopropylsulfonyl)phenyl)pyrazin-2-amine]
